Read-outs that look alike come from different tables or passages of the source.
Test system: HBV DNA
Experiment: HBV DNA by branched DNA assay in HepG2.2.15 cells, two-compound combinations (Examples 13-14)
Assay type: cell-based, HBV; HepG2.2.15 (human hepatoblastoma)
Conditions: for EC50: Hepatitis B virus; for Average percent inhibition versus negative control: n = 4; for Additive percent inhibition versus negative control: Compound (2) μM: 0.01, 0.0032, 0.001, 0.0003, 0.0001, 0
Method: In vitro combination studies were conducted using the method of Prichard and Shipman (Prichard M N, and Shipman C Jr., Antiviral Research, 1990, 14(4-5), 181-205; and Prichard M N, et. al., MacSynergy II). The HepG2.2.15 cell culture system is a cell line derived from human hepatoblastoma HepG2 cells, which have been stably transfected with the adw2-subtype HBV genome as previously explained in Sells et al. (Proc. Natl. Acad. Sci. U. S. A, 1987. Vol 84:1005-1009). HepG2.2.15 cells secrete Dane-like viral particles, produce HBV DNA, and produce the viral proteins, HBeAg and HBsAg.
Although inhibition of HBV DNA, RNA and proteins can be determined in the presence of these inhibitors, we used the branched DNA assay due to its ability to quantitatively measure the level HBV DNA.
Detection of HBV DNA. The branched DNA assay (bDNA) was used to determine the effect of compound combinations on HBV DNA. HepG2.2.15 (10,000 cells/well) were cultured in DMEM medium plus supplements as described above. The next day, the cells were replenished with fresh medium followed by the addition of Inhibitor A and B, both were dissolved in 100% DMSO. The microtiter cell plates were incubated for a total duration of 6 days at 37° C. without replenishing media or compound. The serial dilutions spanned concentration ranges respective to the EC50 value of each compound. In addition to combination testing of the compounds, both inhibitors A and B were also tested singly.
The level of bDNA present in the inhibitor-treated supernatant wells was measured using a Quantigene 2.0 bDNA assay kit (Affymetrix, Santa Clara, Calif.) with HBV specific custom probe set (genotype D ayw; DF-10739) and manufacturer's instructions after performing a proteinase K digestion in lysis. The plates were read using a Victor luminescence plate reader (PerkinElmer Model 1420 Multilabel counter) and the RLU data generated from each well was calculated as inhibition of the untreated control wells. The data was analyzed using the interpretive guidelines established by Prichard and Shipman combination model using the MacSynergy II program (Prichard M N, Shipman C Jr. Antiviral Research, 1990. Vol 14(4-5):181-205; Prichard M N, Aseltine KR, and Shipman, C. MacSynergy II. University of Michigan 1992) to determine whether the combinations were synergistic, additive or antagonistic using the interpretive guidelines established by Prichard and Shipman as follows: synergy volumes <25 μM2% (log volume <2) at 95% CI=probably insignificant; 25-50 (log volume >2 and <5)=minor but significant 50-100 (log volume >5 and <9)=moderate, may be important in vivo; Over 100 (log volume >9)=strong synergy, probably important in vivo; volumes approaching 1000 (log volume >90)=unusually high, check data. The RLU data from the single compound treated cells were analyzed using XL-Fit module in Microsoft Excel to determine EC50 values using a 4-parameter curve fitting algorithm.

[1] = TAF 0.0002 μM, Cmpd 2 μM: 0.01, 0.0032, 0.001, 0.0003, 0.0001, 0
[2] = TAF 0.0006 μM, Cmpd 2 μM: 0.01, 0.0032, 0.001, 0.0003, 0.0001, 0
[3] = TAF 0.0020 μM, Cmpd 2 μM: 0.01, 0.0032, 0.001, 0.0003, 0.0001, 0
[4] = TAF 0.0064 μM, Cmpd 2 μM: 0.01, 0.0032, 0.001, 0.0003, 0.0001, 0
[5] = TAF 0.0201 μM, Cmpd 2 μM: 0.01, 0.0032, 0.001, 0.0003, 0.0001, 0
[6] = TAF 0.0634 μM, Cmpd 2 μM: 0.01, 0.0032, 0.001, 0.0003, 0.0001, 0
[7] = TAF 0.2002 μM, Cmpd 2 μM: 0.01, 0.0032, 0.001, 0.0003, 0.0001, 0
[8] = TAF 0.6329 μM, Cmpd 2 μM: 0.01, 0.0032, 0.001, 0.0003, 0.0001, 0
[9] = TAF 2.0 μM, Cmpd 2 μM: 0.01, 0.0032, 0.001, 0.0003, 0.0001, 0

COCCCOc1cc2c(nc1OC)-c1cc(=O)c(C(=O)O)cn1[C@H](C(C)C)C2 [Compound 2]
MacSynergy Volume Calculations, 99.99% confidence interval (Bonferroni Adj. 96%) (ETV 0 μM, Cmpd 2 μM: 0.01, 0.0032, 0.001, 0.0003, 0.0001, 0): 0.00
EC50 (HepG2.2.15, HepG2.2.15, bDNA quantitation, study with ETV as Inhibitor A, read-out: Inhibitor B EC50): 0.9 nM
EC50 (HepG2.2.15, HepG2.2.15, bDNA quantitation, study with TAF as Inhibitor A, read-out: Inhibitor B EC50): 0.6 nM
MacSynergy Volume Calculations, 99.99% confidence interval (Bonferroni Adj. 96%) (TAF 0 μM, Cmpd 2 μM: 0.01, 0.0032, 0.001, 0.0003, 0.0001, 0): 0

C=C1[C@H](CO)[C@@H](O)C[C@@H]1n1cnc2c(=O)[nH]c(N)nc21 [ETV, entecavir]
MacSynergy Volume Calculations, 99.99% confidence interval (Bonferroni Adj. 96%): 0.00
Average percent inhibition versus negative control (ETV 0.0001 μM, Cmpd 2 μM: 0.01, 0.0032, 0.001, 0.0003, 0.0001, 0): −21.2%
Additive percent inhibition versus negative control (ETV 0.0001 μM): −21.2%
Average percent inhibition versus negative control (ETV 0.001 μM, Cmpd 2 μM: 0.01, 0.0032, 0.001, 0.0003, 0.0001, 0): 48.98%
Additive percent inhibition versus negative control (ETV 0.001 μM): 48.98%
Average percent inhibition versus negative control (ETV 0.1 μM, Cmpd 2 μM: 0.01, 0.0032, 0.001, 0.0003, 0.0001, 0): 85.09%
Additive percent inhibition versus negative control (ETV 0.1 μM): 85.09%
Average percent inhibition versus negative control (ETV 1.0E−05 μM, Cmpd 2 μM: 0.01, 0.0032, 0.001, 0.0003, 0.0001, 0): −88.53%
Additive percent inhibition versus negative control (ETV 1.0E−05 μM): −88.53%
Average percent inhibition versus negative control (ETV 1.00E−06 μM, Cmpd 2 μM: 0.01, 0.0032, 0.001, 0.0003, 0.0001, 0): −90.87%
Additive percent inhibition versus negative control (ETV 1.00E−06 μM): −90.87%
Average percent inhibition versus negative control (ETV 3.16E−06 μM, Cmpd 2 μM: 0.01, 0.0032, 0.001, 0.0003, 0.0001, 0): −90.2%
Additive percent inhibition versus negative control (ETV 3.16E−06 μM): −90.2%
Average percent inhibition versus negative control (ETV 3.17E−05 μM, Cmpd 2 μM: 0.01, 0.0032, 0.001, 0.0003, 0.0001, 0): −55.97%
Additive percent inhibition versus negative control (ETV 3.17E−05 μM): −55.97%
EC50 (HepG2.2.15, bDNA quantitation, read-out: Inhibitor A EC50): 3.2 nM

CC(C)OC(=O)[C@H](C)N[P@](=O)(CO[C@H](C)Cn1cnc2c(N)ncnc21)Oc1ccccc1 [TAF, tenofovir alafenamide]
EC50 (HepG2.2.15, read-out: Inhibitor A EC50): 54 nM
MacSynergy Volume Calculations, 99.99% confidence interval (Bonferroni Adj. 96%) [1]: 0
Average percent inhibition versus negative control [1]: 8.88%
Additive percent inhibition versus negative control (TAF 0.0002 μM): 8.88%
MacSynergy Volume Calculations, 99.99% confidence interval (Bonferroni Adj. 96%) [2]: 0
Average percent inhibition versus negative control [2]: 12.91%
Additive percent inhibition versus negative control (TAF 0.0006 μM): 12.91%
MacSynergy Volume Calculations, 99.99% confidence interval (Bonferroni Adj. 96%) [3]: 0
Average percent inhibition versus negative control [3]: 14.28%
Additive percent inhibition versus negative control (TAF 0.0020 μM): 14.28%
MacSynergy Volume Calculations, 99.99% confidence interval (Bonferroni Adj. 96%) [4]: 0
Average percent inhibition versus negative control [4]: 19.87%
Additive percent inhibition versus negative control (TAF 0.0064 μM): 19.87%
MacSynergy Volume Calculations, 99.99% confidence interval (Bonferroni Adj. 96%) [5]: 0
Average percent inhibition versus negative control [5]: 25.36%
Additive percent inhibition versus negative control (TAF 0.0201 μM): 25.36%
MacSynergy Volume Calculations, 99.99% confidence interval (Bonferroni Adj. 96%) [6]: 0
Average percent inhibition versus negative control [6]: 42.96%
Additive percent inhibition versus negative control (TAF 0.0634 μM): 42.96%
MacSynergy Volume Calculations, 99.99% confidence interval (Bonferroni Adj. 96%) [7]: 0
Average percent inhibition versus negative control [7]: 62.7%
Additive percent inhibition versus negative control (TAF 0.2002 μM): 62.7%
MacSynergy Volume Calculations, 99.99% confidence interval (Bonferroni Adj. 96%) [8]: 0
Average percent inhibition versus negative control [8]: 76.45%
Additive percent inhibition versus negative control (TAF 0.6329 μM): 76.45%
MacSynergy Volume Calculations, 99.99% confidence interval (Bonferroni Adj. 96%) [9]: 0
Average percent inhibition versus negative control [9]: 87.21%
Additive percent inhibition versus negative control (TAF 2.0 μM): 87.21%

— patent US20220168430A1, “THERAPEUTIC METHODS FOR TREATING HEPATITIS B” (priority 2019, published 2022)
